Assay results published in US20150290280A1, “ANTIMICROBIAL ARTICLES PRODUCED BY ADDITIVE MANUFACTURING” (ORTHOPAEDIC INNOVATION CENTER INC., priority 2012, published 2015).

Tests used:
S. aureus = assay: Elution of antibiotics from 3D-printed coupons assessed by inhibition of growth of S. aureus on Meuller Hinton agar (Examples 3 and 4); type: cell-based, Staphylococcus aureus; details: about 72 hrs, 35-37° C., 25 = coupon diameter = no inhibition; for zone of inhibition, articles comprising PLA, antibiotic concentration 1%: 1% w/w antibiotic in PLA coupon; for zone of inhibition, articles comprising PLA, antibiotic concentration 2%: 2% w/w antibiotic in PLA coupon; for zone of inhibition, articles comprising PLA, antibiotic concentration 5%: 5% w/w antibiotic in PLA coupon; for zone of inhibition, articles comprising PCL polymer, antibiotic concentration 1%: 1% w/w antibiotic in PCL coupon; for zone of inhibition, articles comprising PCL polymer, antibiotic concentration 2%: 2% w/w antibiotic in PCL coupon; for zone of inhibition, articles comprising PCL polymer, antibiotic concentration 5%: 5% w/w antibiotic in PCL coupon
Description: Control coupons having the same physical dimensions and appearance as the test coupons, were printed with the […]® MOJO® printer by feeding the control filaments through the extrusion nozzle. The 2% and 5% tobramycin/PLA test coupons were printed with an extrusion temperature of 170° C., while the PLA control coupons and the 1% tobramycin/PLA test coupons were printed with an extrusion temperature of 205° C. The N12 control coupons, the 1%, 2%, and 5% gentamicin/N12 coupons, and the 1%, 2%, and 5% vancomycin/N12 coupons were printed at an extrusion temperature of 195° C. The remaining control coupons and test coupons were printed with an extrusion temperature of 170° C. The elution of antibiotics from the test coupons produced in Example 2 was assessed by the inhibition of the growth of S. aureus on the surfaces of Meuller Hinton agar contained within Petri dishes onto which test coupons placed. S. aureus cultures were grown on TSA amended with 5% sheep blood. A sufficient amount of S. aureus culture was transferred from the TSA culture plates to a 0.85% sterile saline solution to provide a uniform suspension that fell within a 0.5-2.0 McFarland turbidity standard. Aliquots of the S. aureus culture were plated onto Meuller Hinton agar in Petri dishes after which, two test coupons/dish (or alternatively, control coupons) were placed on the agar; one with its shiny side up and the other with its matte side up. The Meuller Hinton agar-containing Petri dishes were then incubated for about 72 hrs at temperatures in the range of about 35° C. to about 37° C. The zones of inhibition around each coupon were then measured and recorded (in mm) A clear zone around a test coupon indicates the inhibition of growth of S. aureus. […] The data shown in Tables 10, 11, and 12 confirm that all three antibiotics tested, i.e., tobramycin, gentamicin, and vancomycin, were eluted from articles printed with extruded antibiotic-containing polymers as evidenced by zones of inhibition of S. aureus cultures by articles comprising PLA polymer (Table 10), inhibition of S. aureus cultures by articles comprising PCL polymer (Table 11), and inhibition of S. aureus cultures by articles comprising HPDE polymer (Table 12). […] The control coupons for this study were taken from the batch of control coupons produced in Example 1. […] The data shown in Table 14 confirm that the three antibiotics were eluted from articles printed with extruded polymers comprising the three antibiotics.

Staphylococcus aureus = assay: Zones of inhibition around 3D-printed coupons on S. aureus plated on Tryptic soy agar (Example 1); type: cell-based; details: 3D-printed PLA coupon (25 mm diameter) comprising 1% tobramycin; shiny side down; TSA; 72 h at 37° C.
Description: The 1% tobramycin/PLA filament was supplied to the extrusion nozzle of a STRATASYS® MOJO® FDM® 3D printer (STRATASYS and MOJO are registered trademarks of Stratasys Inc., Eden Prairie, Minn., USA) to print replicate test coupons with an extrusion temperature of 205° C. […] Control coupons having the same physical dimensions and appearance as the test coupons, were printed with the STRATASYS® MOJO® FDM® 3D printer by feeding the control PLA filament through the extrusion nozzle at an extrusion temperature of 205° C.
Aliquots of a culture of Staphylococcus aureus grown in Tryptic soy broth (TSB) were plated onto the surface of Tryptic soy agar (TSA) contained within Petri plates. Two test coupons were placed onto the plated S. aureus culture in a Petri plate with one shiny side down and one matte side down. Two control coupons were placed onto the plated S. aureus culture in a Petri plate with one shiny side down and one matte side down. Triplicate plates were prepared with test coupon and with control coupons. The Petri plates were incubated for 72 h at 37° C. after which, the plates were examined for the occurrence of zones of inhibition around the coupons. No inhibition of the growth of S. aureus in the Petri plates receiving the control coupons. […]

Compound	zone of inhibition, articles comprising HDPE polymer, antibiotic concentration 1% (S. aureus; 1% w/w antibiotic in HDPE coupon)	zone of inhibition, articles comprising PLA, antibiotic concentration 1% (S. aureus)	zone of inhibition, articles comprising HDPE polymer, antibiotic concentration 2% (S. aureus; 2% w/w antibiotic in HDPE coupon)	zone of inhibition, articles comprising PLA, antibiotic concentration 2% (S. aureus)	zone of inhibition, articles comprising HDPE polymer, antibiotic concentration 5% (S. aureus; 5% w/w antibiotic in HDPE coupon)	zone of inhibition, articles comprising PLA, antibiotic concentration 5% (S. aureus)	zones of inhibition in the growth of S. aureus around the shiny surfaces (Staphylococcus aureus)	zone of inhibition, articles comprising PCL polymer, antibiotic concentration 1% (S. aureus)	zone of inhibition, articles comprising PCL polymer, antibiotic concentration 2% (S. aureus)	zone of inhibition, articles comprising PCL polymer, antibiotic concentration 5% (S. aureus)
NC[C@H]1O[C@H](O[C@H]2[C@H](O)[C@@H](O[C@H]3O[C@H](CO)[C@@H](O)[C@H](N)[C@H]3O)[C@H](N)C[C@@H]2N)[C@H](N)C[C@@H]1O [Tobramycin, tobramycin]	27.0 mm	37.7 mm	28.5 mm	27.5 mm	37.5 mm	28 mm	37.7 mm	–	–	–
CN[C@H](CC(C)C)C(=O)N[C@H]1C(=O)N[C@@H](CC(N)=O)C(=O)N[C@H]2C(=O)N[C@H]3C(=O)N[C@H](C(=O)N[C@H](C(=O)O)c4cc(O)cc(O)c4-c4cc3ccc4O)[C@H](O)c3ccc(c(Cl)c3)Oc3cc2cc(c3O[C@@H]2O[C@H](CO)[C@@H](O)[C@H](O)[C@H]2O[C@H]2C[C@](C)(N)[C@H](O)[C@H](C)O2)Oc2ccc(cc2Cl)[C@H]1O [Vancomycin, vancomycin]	–	–	–	–	–	–	–	28.5 mm	25 mm	28.5 mm
gentamicin	–	34.0 mm	–	26.5 mm	–	37.5 mm	–	32.0 mm	38.5 mm	41.0 mm
